Results taken from patent EP4772520A1, “NOVEL PRODRUG-TYPE ANTICANCER AGENT TARGETING CANCER-SPECIFIC ENZYME ACTIVITY” (priority 2023, dated 2025).
Several values for one entry are separate records, joined by “and”; a condition that tells them apart may be missing. Identical values can stand only once.

Tests used:
[1] = Single dose toxicity test 1 (intravenous); type: in vivo, Jcl: ICR mice (female)
Experimental: Single dose toxicity was evaluated by intravenously administering 200 mg/kg each of the novel prodrug-type anticancer agents SN38-βGal and SN38-βGlcNAc to Jcl: ICR mice (female).

[2] = Experimental: For the Vehicle group, a corresponding amount of DMSO was administered.
After blood was collected on day 22 and then euthanized, the liver, kidney, and spleen were taken out and their weights were compared.

[3] = Single dose toxicity test 2 (intravenous); type: in vivo, Jcl: ICR mice (female); conditions: for Survival rate (%) (after 14 days) / Survival rate (%) (just after administration): n=10
Experimental: Single dose toxicity was evaluated by intravenously administering the novel prodrug-type anticancer agents SN38-βGal and SN38-βGlcNAc to Jcl: ICR mice (female). […] 500 mg/kg of SN38-βGlcNAc was intravenously administered.

in vivo = conditions: for AUC(0-t) at 6 h: AUC0-6h (μg・h/mL); for clearance: CLtot (mL/min/kg)
Description: A specific test procedure is shown below. • (1) Three marmosets (6 males in total) in each of the SN38-βGal and SN38-βGlcNAc administration groups were sequentially retained using a retention device, and a tail of the administration site was shaved. • (2) The base of the tail from the injection site was avascularized to cause blood vessels to become engorged. Veins running on both left and right sides of the tail were checked, the puncture site was disinfected with alcohol cotton, and then administration was performed with a 27 G injection needle using one of the left and right blood vessels. For administration, 1.0 mg/mL of prepared administration solution of SN38-βGal or SN38-βGlcNAc was intravenously administered at an injection rate of 350 µL/min (about 11 minutes: due to different body weight, the time τ actually required for the injection was accurately recorded for each individual) by an infusion pump at a dose of 10 mg/10 mL/kg. • (3) Immediately after the start of infusion administration, about 220 µL of blood was collected with a heparinized syringe at 5, 15, 30, 45 minutes, 1, 2, 3, and 6 hours, and centrifuged at 1200 G and 4°C for 15 minutes to collect plasma. • (4) After the plasma was dispensed into the microtube, 100 µL of the plasma was accurately taken, and a 200 µM of inhibitor N-(n-nonyl) deoxygalactonoijirimycin solution in the SN38-βGal administration group, a 200 µM of inhibitor PUGNAc solution in the SN38-βGlcNAc administration group, and 100 µL of each were added to the microtube dispensed in advance and mixed quickly.

[4] = test system: luciferase-expressing A549 cells; test: Therapeutic experiment 2 in A549 lung cancer orthotopic transplantation model; type: in vivo, mice; conditions: i.v. 40 mg/kg 5 times then 80 mg/kg 7 times every other day
Experimental: Using SN38-βGal and SN38-βGlcNAc, the dose was increased to verify the therapeutic effect in the lung cancer orthotopic transplantation model. Whether the tumor suppression effect was confirmed was evaluated as compared with the Vehicle group (DMSO administration) by separating the SN38-βGal and SN38-βGlcNAc administration groups. The evaluation was performed on luciferase-expressing A549 cell […] mice using BALB/cAJcl-nu/nu with n = 3 for the Vehicle group, n = 4 for the SN38-βGal group, and n = 5 for the SN38-βGlcNAc group. The administration form was intravenous administration (i.v.).
For administration, 40 mg/kg was administered 5 times in total every other day, and then 80 mg/kg was administered 7 times in total every other day. The tumor burden was determined by evaluating the luciferin/luciferase chemiluminescence value. The endpoint was a significant body weight loss (20% loss).
A specific procedure of the therapeutic experiment is shown below. • (1) Model mice were created by the following operation using BALB/cAJcl-nu/nu (7 weeks old). The skin of the chest was incised, and the skin was subcutaneously detached, then luciferase-expressing A549 cells 2 × 10^7 cells/mL (50 µL, 5% Matrigel) was injected from the intercostal pleura to the left lung. After injection, the skin was sutured. • (2) After 1 week, the formation of cancer was confirmed by luciferin/luciferase chemiluminescence, and the intravenous administration of the drug was started. The drug was prepared by dissolving a 200 mM of DMSO stock in PBS, and administered in a total amount of 100 µL. 3 mg (200 µL) of luciferin was administered by intraperitoneal administration, and anesthetized with isoflurane. Thereafter, the chemiluminescent value at 20 minutes after administration was measured by an in vivo imaging device. • (3) On the day of evaluation, the tumor burden was evaluated by luciferin/luciferase chemiluminescence. • (4) After completion of the treatment, HMRef-βGlcNAc, 5 mg/kg (100 µL PBS) was administered by intravenous administration. 30 minutes after administration, the sternum was incised, and the lungs were taken out. • (5) The cancer lesion was fluorescently imaged by an in vivo fluorescence imaging device, and comparison between the Vehicle and the administration group was performed.

[5] = test system: lung squamous carcinomas cell H226; test: Cytotoxicity test by MTT assay method (H226 cells); type: cell-based
human AChE = molecular target: T1, human AChE (Homo sapiens, UniProt P22303); test: Evaluation of inhibitory activity on acetylcholinesterase (AChE); type: biochemical
T1 construct: purchased AnaSpec, Inc
Experimental: The procedure of the specific inhibition test is shown below. • (1) A test drug at each concentration was added to a 96 well plate, and acetylcholine, an AChE substrate, and an AChE purified enzyme were added according to a protocol, using SensoLyte (registered trademark) 520 Acetylcholine esterase Activity Assay Kit Fluorometric (AnaSpec, Inc.). Neostigmine bromide known as an AChE inhibitor was used as […]. • (2) The fluorescence value at 520 nm was measured, and the IC50 value was calculated.

[6] = 200 mg/kg single intravenous administration, n=10
[7] = mouse, in vivo, iv, single intravenous administration, estimated
[8] = 40 mg/kg i.v. repeated, vs Vehicle
[9] = marmoset, in vivo, iv, 10 mg/kg, prodrug, 11 min infusion, N=3, average
[10] = marmoset, in vivo, iv, 10 mg/kg, prodrug, 10 mg/kg i.v., individual marmosets
[11] = prodrug, 10 mg/kg i.v., individual marmosets, 10 mg/kg

T1 sequence (P22303 32-614): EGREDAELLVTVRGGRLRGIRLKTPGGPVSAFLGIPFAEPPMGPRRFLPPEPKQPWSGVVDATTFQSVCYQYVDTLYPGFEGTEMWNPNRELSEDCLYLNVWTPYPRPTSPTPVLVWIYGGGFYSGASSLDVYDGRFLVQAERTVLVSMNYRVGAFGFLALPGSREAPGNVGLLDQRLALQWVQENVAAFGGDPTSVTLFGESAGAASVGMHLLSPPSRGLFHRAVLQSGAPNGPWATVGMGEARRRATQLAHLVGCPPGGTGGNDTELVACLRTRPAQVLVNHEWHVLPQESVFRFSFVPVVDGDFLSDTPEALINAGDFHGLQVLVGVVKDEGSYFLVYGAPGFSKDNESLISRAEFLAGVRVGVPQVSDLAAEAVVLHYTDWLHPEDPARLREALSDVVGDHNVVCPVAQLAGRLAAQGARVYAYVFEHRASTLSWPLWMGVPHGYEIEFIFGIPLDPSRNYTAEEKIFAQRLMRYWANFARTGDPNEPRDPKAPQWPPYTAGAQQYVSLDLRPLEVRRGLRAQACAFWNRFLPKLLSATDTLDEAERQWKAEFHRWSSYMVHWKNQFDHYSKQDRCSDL

CCc1c2c(nc3ccc(O[C@@H]4O[C@H](CO)[C@@H](O)[C@H](O)[C@H]4NC(C)=O)cc13)-c1cc3c(c(=O)n1C2)COC(=O)[C@]3(O)CC [SN38-βGlcNAc]
symptoms immediately after administration ([1]; 200 mg/kg intravenous, improved in several hours): reduced locomotor activity, tremor, and prone states were found in more than half of the mice in both groups
Survival rate (%) (after 10 days) [1, 6]: 100%
Survival rate (%) (just after administration) [1, 6]: 100%
LD50 at 240 h [1, 7]: ≥ 200 mg/kg
Histological findings in kidney ([2]; 40 mg/kg i.v. repeated): organ damage to the kidney was not observed
Histological findings in large intestine ([2]; 40 mg/kg i.v. repeated): the side effects were very mild as compared with CPT-11
Histological findings in liver ([2]; 40 mg/kg i.v. repeated): organ damage to the liver was not observed
Histological findings in small intestine ([2]; 40 mg/kg i.v. repeated): the side effects were very mild as compared with CPT-11
Histological findings in spleen ([2]; 40 mg/kg i.v. repeated): organ damage to the spleen was very mild
organ weight (liver, kidney, spleen) ([2]; 40 mg/kg i.v. repeated, day 22, vs Vehicle): An increase in spleen weight was observed
histological findings (organ damage) ([2]; 40 mg/kg i.v. repeated, summary): no organ damage was observed in the small intestine, large intestine, kidney, liver, and spleen
biochemical test findings [2, 8]: slight increases in urea nitrogen and creatinine were observed
blood cell test findings [2, 8]: an increase in eosinophils and a decrease in basophils were estimated
body weight loss ([2]; 40 mg/kg i.v. three times a week for three weeks, at maximum by the final day): significant body weight loss was not observed
RETICULOCYTE COUNT ([2]; blood cell classification, Average, 40 mg/kg i.v. repeated): 242300 µL⁻¹
Survival rate (%) (after 14 days) ([3]; 200 mg/kg intravenous): 100%
Survival rate (%) (just after administration) ([3]; 200 mg/kg intravenous): 100%
Survival rate (%) (after 14 days) ([3]; 300 mg/kg intravenous): 100%
Survival rate (%) (just after administration) ([3]; 300 mg/kg intravenous): 100%
Survival rate (%) (after 14 days) ([3]; 500 mg/kg intravenous): 100%
Survival rate (%) (just after administration) ([3]; 500 mg/kg intravenous): 100%
symptoms immediately after administration ([3]; SN38-βGal 300 mg/kg, SN38-βGlcNAc 500 mg/kg intravenous, improved in several hours): reduced locomotor activity and prone states were found in more than half of the mice in both groups
LD50 at 336 h [3, 7]: ≥ 500 mg/kg
abnormalities after drug administration (in vivo; 10 mg/kg i.v.): remarkable abnormalities, vomiting, and the like were not found in any individual
AUC(0-t) at 6 h (in vivo; [9]): 78300 ng·h/mL
AUC(0-t) at 6 h (in vivo; [10]): 73500 ng·h/mL
AUC (in vivo; marmoset, in vivo, iv, 10 mg/kg, AUC0- (μg・h/mL), prodrug, 10 mg/kg i.v., individual marmosets): 73800 ng·h/mL
clearance (in vivo; [9]): 2.2 mL/min/kg
clearance (in vivo; [10]): 2.3 mL/min/kg
Vd (in vivo; marmoset, in vivo, iv, 10 mg/kg, Vd (L/kg), prodrug, 11 min infusion, N=3, average): 0.142 L/kg
Vd (in vivo; marmoset, in vivo, iv, 10 mg/kg, Vd (L/kg), prodrug, 10 mg/kg i.v., individual marmosets): 0.149 L/kg
half-life (in vivo; marmoset, in vivo, iv, 10 mg/kg, blood half-life, prodrug, 10 mg/kg i.v., 11 minutes infusion): 47.6 min
half-life (in vivo; marmoset, in vivo, iv, 10 mg/kg, t1/2 (h), prodrug, 11 min infusion, N=3, average): 47.6 min
half-life (in vivo; marmoset, in vivo, iv, 10 mg/kg, t1/2 (h), prodrug, 10 mg/kg i.v., individual marmosets): 43.9 min
CLtot (in vivo; [11]): 2.0 mL/min/kg
Vd (in vivo; [11]): 0.134 L/kg and 0.143 L/kg
t1/2 (in vivo; [11]): 49.7 min and 49.3 min
AUC0-6h (μg・h/mL) (in vivo; prodrug, 10 mg/kg i.v., individual marmosets, 10 mg/kg, 360 min): 84.34 μg・h/mL and 76.92 μg・h/mL
body weight [4]: the body weight loss was not found in the first 2 weeks
tumor suppression effect (luciferin/luciferase chemiluminescence) ([4]; vs Vehicle): the tumor growth was significantly suppressed in all mice
cytotoxicity in the presence of inhibitor ([5]; H226, 40 µM of inhibitor of β-hexosaminidase, PUGNAc): cytotoxicity was significantly reduced
IC50 ([5]; Homo sapiens, NCI-H226, 72 h, read-out: IC50 value): 1.5 µM
AChE inhibitory activity (human AChE; in the presence of 10 µM of each drug): did not inhibit AChE activity in this concentration range
IC50 (human AChE; read-out: IC50 value for AChE inhibition, 60 min value): 1440 µM
